# Test results reported in patent US8178506B2, “Oligomeric compounds and compositions for use in modulation of small non-coding RNAs” (Regulus Therapeutics Inc., priority 2003, dated 2012).
# In the oligonucleotide strings, read from the 5' end, every base follows the letter of its sugar. An asterisk marks phosphorothioate; unmarked linkages are phosphodiester. Other units and linkages are bracketed, terminal groups are in braces. A string of capitals states the bases alone. e = 2'-O-(2-methoxyethyl) (MOE); [5mC] = 5-methylcytosine
# Key:
# mir-23b miRNA = assay: pGL3-mir-23b sensor luciferase assay in HeLa cells; type: cell-based, human; conditions: pGL3-mir-23b sensor-expressing HeLa cells
# mir-143 binding sites = assay: pGL3-mir-143 sensor luciferase assay in HeLa cells; type: cell-based, human; conditions: for Relative luciferase activity / luciferase expression (% lucif. only control): HeLa cells; for Relative luciferase activity: pGL3-mir-143 sensor with pCR3-pri-mir-143 (430); for luciferase expression (% lucif. only control): pGL3-mir-143 sensor
# Text: In one embodiment, an expression system based on the pGL3-Control (Promega Corp., Madison Wis.) vector containing a CMV promoter controlling expression of a luciferase reporter sequence was used in transient transfections of HeLa cells with plasmids expressing miRNA or pri-miRNA mimics. To assess the ability of miRNA mimics to bind and regulate the expression of the luciferase reporter gene, two reporter plasmids were constructed: 1) a synthetic DNA fragment comprising two sites perfectly complementary to mir-143 were inserted into the pGL3-Control luciferase reporter vector, to create the pGL3-mir-143 sensor plasmid, and 2) a DNA fragment comprising the 3′-UTR of the LIM domain only 4 (LMO4) gene (predicted to be regulated by mir-143) was inserted into pGL3-Control to create pGL3-LMO4; this fragment was PCR-amplified using a primer beginning at position 1261 of the LMO4 sequence (GenBank Accession NM_006769.2, incorporated herein as SEQ ID: 809) and the downstream primer hybridizing to the poly-A tail. In each of these plasmids, the target site was placed downstream of the luciferase coding sequence and upstream of the polyadenylation signal in the 3′-UTR of the luciferase reporter vector. The unmodified pGL3-Control luciferase reporter vector was used as a control.
# HeLa cells were routinely cultured and passaged as described, and on the day before transfection with expression or reporter plasmids, the HeLa cells were seeded onto 24-well plates 50,000 cells/well. Cells were transfected according to standard published procedures with various combinations of plasmids using 2 μg Lipofectamine™ 2000 Reagent (Invitrogen) per μg of plasmid DNA, or, when transfecting oligomeric compounds, 1.25 μg of Lipofectamine™ 2000 Reagent per 100 nM oligonucleotide or double-stranded RNA. The luciferase signal in each well was normalized to the Renilla luciferase (RL) activity produced from a co-transfected plasmid, pRL-CMV, which was transfected at 0.5 μg per well. Cells were treated at various dosages (4 nM, 20 nM, and 100 nM) with the following oligomeric compound mimics: 1) “ds-mir-143,” 2) “ds-Control,” 3) “pCR3-pri-mir-143,” or 4) “pri-mir-control,” as described supra. In accordance with methods described in Example 12, supra, a luciferase assay was performed 48-hours after transfection. Briefly, cells were lysed in passive lysis buffer (PLB; Promega), and 20 ul of the lysate was then assayed for RL activity using a Dual Luciferase Assay kit (Promega) according to the manufacturer's protocol. The results below are an average of three trials and are presented as percent pGL3-Control luciferase expression normalized to pRL-CMV expression (RL).
# In another embodiment, HeLa cells were transfected with 0.03 μg pGL3-mir-143 sensor plasmid and 0.01 μg pRL-CMV plasmid, and, in addition, (except those samples described below as “without mir-143 pri-miRNA,”) were also transfected with 0.01 μg of an expression plasmid designed to express a mir-143 pri-miRNA mimic comprising a larger 430-nt fragment of the mir-143 primary miRNA transcript, referred to as “pCR3-pri-mir-143 (430)” ([…]; SEQ ID NO: 871). […] To further evaluate the ability of the mir-143 pri-miRNA mimic to inhibit luciferase activity from the sensor plasmid, and to assess the ability of oligomeric compounds to interfere with the inhibition of pGL3-mir-143 sensor luciferase expression by the mir-143 pri-miRNA mimic, pGL3-mir-143 sensor-expressing HeLa cells treated with pCR3-pri-mir-143 (430) were additionally treated with varying concentrations (0-, 6.7- or 20 nM) of the following oligomeric compounds: 1) ISIS Number 327901 (SEQ ID NO: 319), a uniform 2′-MOE oligomeric compound targeting mir-143; 2) ISIS Number 342673 (SEQ ID NO: 758), a uniform 2′-MOE scrambled control; or 3) ISIS Number 327924 (SEQ ID NO: 342) targeting an unrelated miRNA (mir-129-2). […]
Substance,Fold change luciferase (mir-23b miRNA; 1.3 nM),Fold change luciferase (mir-23b miRNA; 5 nM),Fold change luciferase (mir-23b miRNA; 20 nM),Relative luciferase activity (mir-143 binding sites; 6.7 nM),Relative luciferase activity (mir-143 binding sites; 20 nM),"luciferase activity from the pGL3-mir-143 sensor plasmid (mir-143 binding sites; HeLa, 4 nM, 20 nM and 100 nM, 48 hours)","luciferase expression (% lucif. only control) (mir-143 binding sites; 4 nM, 48 hours)","luciferase expression (% lucif. only control) (mir-143 binding sites; 20 nM, 48 hours)","luciferase expression (% lucif. only control) (mir-143 binding sites; 100 nM, 48 hours)"
327924 (antisense eG*e[5mC]*eA*eA*eG*e[5mC]*e[5mC]*e[5mC]*eA*eG*eA*e[5mC]*e[5mC]*eG*e[5mC]*eA*eA*eA*eA*eA*eG) [compound 327924],1.15,0.68,0.92,0.8,1.2,–,–,–,–
"ds-mir-143: double-stranded RNA of ISIS 342199 hybridized to its perfect complement ISIS 342200 (sense UGAGAUGAAGCACUGUAGCUCA; antisense UGAGCUACAGUGCUUCAUCUCA; RNA, backbone not given here)",–,–,–,–,–,inhibited luciferase activity from the pGL3-mir-143 sensor plasmid in a dose-dependent manner,14.5,8.0,7.1
